One assay has as its system DU-145. Put plainly: Cell viability MTS assay. The format is cell-based, human. Conditions: Homo sapiens, DU-145, 72 hours with compound. The method in brief:
(§1)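 Adherent lines grown in DMEM with 15% heat-inactivated FBS at 37° C., 5% CO2; seeded, left 16-24 hours, then exposed to serially diluted compound (0.33% DMSO final) for 72 hours. MTS/PMS added for 4 hours, SDS stop, A490 read; IC50 is 50% fewer viable cells versus DMSO controls.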

The subject of another assay is PC-3. Nature of the assay: Cell viability MTS assay. In kind it is cell-based, human. Conditions: Homo sapiens, PC-3, 72 hours with compound. The procedure, abridged:
as §1

The test system of another assay is MDA-MB-231. Put plainly: Cell viability MTS assay. The format is cell-based, human. Conditions: Homo sapiens, MDA-MB-231, 72 hours with compound. The method in brief:
as §1

In a further assay the test system is SKOV-3. Nature of the assay: Cell viability MTS assay. Conditions: Homo sapiens, SK-OV-3, 72 hours with compound. The format is cell-based, human. The procedure, abridged: as §1
For the next assay, the system named is A549. Nature of the assay: Cell viability MTS assay. The format is cell-based, human. Conditions: Homo sapiens, A549, 72 hours with compound. The method in brief: as §1
A further assay deals with SK-MEL-28. Put plainly: Cell viability MTS assay. In kind it is cell-based, human. Conditions: Homo sapiens, SK-MEL-28, 72 hours with compound. The method in brief: as §1
In another assay the test system is MCF7. Put plainly: Cell viability MTS assay. The format is cell-based, human. Conditions: Homo sapiens, MCF7, 72 hours with compound. The method in brief:
as §1

For a further assay, the system named is HT29. Put plainly: Cell viability MTS assay. In kind it is cell-based, human. Conditions: Homo sapiens, HT-29, 72 hours with compound. The procedure, abridged:
as §1

The subject of a further assay is K562. Nature of the assay: Cell viability MTS assay. In kind it is cell-based, human. Conditions: Homo sapiens, K562, 72 hours with compound. The method in brief: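 IC50 values reflect 50% loss of viable cells, measured as MTS absorbance at 490 nm. Compound was present for 72 hours, with a 4-hour MTS/PMS step ended by SDS.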
Another assay relates to HCT-116. Put plainly: Cell viability MTS assay. The format is cell-based, human. Conditions: Homo sapiens, HCT-116, 72 hours with compound. The procedure, abridged: as §1
The next assay deals with c-Met (Homo sapiens, UniProt P08581). Put plainly: c-Met inhibition, phospho-c-Met blot with densitometry (Example 83). Also on record: whole cell extracts were prepared; endogenous in cells; host or cells: MCF-7, MDA-MB-231, DLD1, HT29, PACA2, PANC-1, NCI-H441. The format is cell-based. Conditions: 24 hours treatment, read-out: (−)-trans IC50 c-Met Inhibition. As to the method: To determine c-met inhibition, exponentially growing MCF-7 and MDA-MB-231 human breast cancer cells, DLD1 and HT29 human colon cancer cells, PACA2 and PANC-1 human pancreatic cancer cells and NCI-H441 human non-small cell lung cancer cells (H441) were serum starved in 0.5% FBS and treated with increasing amounts of (−)-trans-3-(5,6-dihydro-4H-pyrrolo [3,2,1-ij]quinolin-1-yl)-4(1H-indol-3-yl)pyrrolidine-2,5-dione for 24 hours as indicated. Cells were then left unstimulated or stimulated with 100 ng/mL HGF for 10 minutes and whole cell extracts were prepared. Whole cell lysates (50 μg) were resolved by SDS-PAGE, transferred onto a PVDF membrane, and an enhanced chemiluminescence assay system (ECL) was used to determine the phosphorylation status of c-Met. A polyclonal antibody against phospho (Y1349) c-Met (phospho-c-Met) was obtained from Biosource International and a monoclonal antibody against β-actin was purchased from Invitrogen. Percent inhibition was determined by densitometry using the Scion Image For colony formation assays (CFA), exponentially growing cells were seeded at 2,000 cells per well in 6-well plates and allowed to attach for 24 hours. Increasing concentrations of (−)-trans-3-(5,6-dihydro-4H-pyrrolo[3,2,1-ij]quinolin-1-yl)-4(1H-indol-3-yl)pyrrolidine-2,5-dione (from 0.01 to 30 μM) were then added to the media for another 24 hours. After 24 hours exposure, the drug was removed and fresh media was added for the next 14-21 days, allowing for colony formation. Cells were fixed and stained with GEMSA (Gibco BRL). Colonies of greater than 50 cells were scored as survivors and percentage of cell survival was plotted to determine the IC50. […] The IC50 of (−)-trans-3-(5,6-dihydro-4H-pyrrolo[3,2,1-ij]quinolin-1-yl)-4(1H-indol-3-yl) pyrrolidine-2,5-dione for c-Met expressing solid tumor types is in the 0.1-0.7 μM range following exposure to (−)-trans-3-(5,6-dihydro-4H-pyrrolo[3,2,1-ij]quinolin-1-yl)-4(1H-indol-3-yl)pyrrolidine-2,5-dione for 24 hours, as determined by colony formation assay (CFA).

Read-outs that look alike come from different tables or passages of the source.

Chain of c-Met (P08581 25-1390): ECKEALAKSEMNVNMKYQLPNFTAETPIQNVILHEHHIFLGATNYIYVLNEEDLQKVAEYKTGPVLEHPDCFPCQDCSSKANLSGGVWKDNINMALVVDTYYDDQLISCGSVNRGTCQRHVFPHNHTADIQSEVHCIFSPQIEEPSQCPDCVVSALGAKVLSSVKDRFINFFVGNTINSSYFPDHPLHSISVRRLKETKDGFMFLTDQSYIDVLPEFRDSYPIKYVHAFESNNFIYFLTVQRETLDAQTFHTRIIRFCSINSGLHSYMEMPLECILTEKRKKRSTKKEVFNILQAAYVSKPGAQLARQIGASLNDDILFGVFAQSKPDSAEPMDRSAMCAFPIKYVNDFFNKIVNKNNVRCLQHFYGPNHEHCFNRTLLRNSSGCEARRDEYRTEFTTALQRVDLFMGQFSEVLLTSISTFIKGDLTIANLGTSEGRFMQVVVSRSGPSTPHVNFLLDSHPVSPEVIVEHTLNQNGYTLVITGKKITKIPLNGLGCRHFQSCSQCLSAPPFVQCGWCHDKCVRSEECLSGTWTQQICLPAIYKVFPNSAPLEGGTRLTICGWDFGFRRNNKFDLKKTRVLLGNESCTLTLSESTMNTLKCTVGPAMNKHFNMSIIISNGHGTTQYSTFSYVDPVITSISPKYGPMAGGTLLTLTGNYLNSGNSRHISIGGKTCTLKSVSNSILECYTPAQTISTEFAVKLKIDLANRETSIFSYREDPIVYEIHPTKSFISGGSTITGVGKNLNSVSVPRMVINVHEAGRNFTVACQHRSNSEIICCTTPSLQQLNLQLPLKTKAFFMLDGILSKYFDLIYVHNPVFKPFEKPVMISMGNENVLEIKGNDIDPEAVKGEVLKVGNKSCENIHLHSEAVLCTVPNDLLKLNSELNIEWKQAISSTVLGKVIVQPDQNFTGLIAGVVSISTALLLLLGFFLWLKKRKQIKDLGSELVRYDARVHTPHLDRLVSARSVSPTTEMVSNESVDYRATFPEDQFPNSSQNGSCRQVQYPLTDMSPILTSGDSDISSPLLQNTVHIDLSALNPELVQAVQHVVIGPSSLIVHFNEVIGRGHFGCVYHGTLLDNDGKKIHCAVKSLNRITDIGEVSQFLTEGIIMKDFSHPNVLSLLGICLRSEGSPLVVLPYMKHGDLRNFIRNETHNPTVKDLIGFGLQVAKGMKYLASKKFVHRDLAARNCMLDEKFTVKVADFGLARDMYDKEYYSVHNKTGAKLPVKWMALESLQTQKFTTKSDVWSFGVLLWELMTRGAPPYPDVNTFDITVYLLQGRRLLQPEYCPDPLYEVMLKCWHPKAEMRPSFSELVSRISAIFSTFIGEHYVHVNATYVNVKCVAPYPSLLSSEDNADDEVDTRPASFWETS

Regarding `O=C1NC(=O)C(c2cn3c4c(cccc24)CCC3)C1c1c[nH]c2ccccc12` (single isomer, unassigned; (-)), the IC50 in the assay with DU-145 came out at 4 µM; in the assay with PC-3 it was 1.28 µM; with MDA-MB-231, 2190 nM; in the assay on SKOV-3, 444 nM; in the assay on A549, 5.8 µM; with SK-MEL-28, 8.68 µM. For the same compound, the IC50 in the assay on MCF7 is above 100 µM; in the assay on HT29 it was 1.95 µM; in the assay with K562, 294 nM; in the assay on HCT-116, 812 nM; at c-Met (DLD-1 cells), 3000 nM; at c-Met (H441 cells), 100 nM. The half-maximal inhibitory concentration (IC50) is 300 nM at c-Met (HT-29 cells); 100 nM at c-Met (MCF-7 cells); 100 nM at c-Met (MDA-MB-231 cells); 100 nM at c-Met (PACA2 cells); 500 nM at c-Met (PANC-1 cells).

Regarding `O=C1NC(=O)[C@@H](c2cn3c4c(cccc24)CCC3)[C@@H]1c1c[nH]c2ccccc12` (racemic) [(±)-Trans-3-(5,6-dihydro-4H-pyrrolo[3,2,1-ij]quinolin-1-yl)-4(1H-indol-3-yl)pyrrolidine-2,5-dione], the IC50 in the assay on DU-145 worked out at 9.61 µM; in the assay with PC-3, 4.95 µM; in the assay on MDA-MB-231, 3340 nM; in the assay with SKOV-3 it was 939 nM; in the assay with A549, 10.7 µM; with SK-MEL-28 it was 13 µM. In addition, the IC50 in the assay on MCF7 is above 100 µM; in the assay with HT29, 4.55 µM; in the assay with K562 it was 424 nM; in the assay with HCT-116, 1820 nM.
